From patent US10183032B2, “Methods for treating bacterial infection” (Ball State Innovation Corporation, priority 2012, dated 2019)

Tests used:
[1] = test system: Staphylococcus aureus; assay: Staphylococcus aureus host cell invasion assay in HUVEC, flow cytometry; assay type: cell-based; conditions: HUVEC; for inhibition of invasion compared with ML 141 (Table 1): 10 μM, flow cytometry; for activity at 10 µM: Staphylococcus aureus, 1 h, read-out: Internalized bacteria (% control ± SEM), Structural analog
Experimental: In one embodiment, human umbilical vein endothelial cells (HUVEC, Life Technologies) are cultured in M200 medium supplemented with LSGS. RAW 264.7 cells (American Type Culture Collection, ATCC, Manassas, Va.) are cultured in RPMI supplemented with 10% FBS and L-glutamine. All cell types are maintained at 5% CO2, 37° C., in 75 cm^2 vented cap flasks (Thermo-Fisher). For assays, cultured cells are plated at 1×10^5 cells/ml in 35 mm culture dishes coated with Attachment Factor. The next day, cells are pretreated in culture medium containing the vehicle control or ML 141. For compound delivery, ML 141 first is suspended into DMSO or into PEG at a concentration of 5 mM. The 5 mM solution is diluted to 1 mM in the solvent and then diluted to the final concentration for each experiment in either serum-containing or serum-free medium. For vehicle control treatment, the same volume of PEG or DMSO as that of ML 141 is added to medium. The following day, the invasion assay is performed. For the shorter duration experiments, compound is added on the same day as the invasion assay, 1 hour prior to bacteria.
In another embodiment, HUVEC (Millipore, Billerica, Mass.) are cultured in EndoGRO LS Complete Media (Millipore) and are maintained at 5% CO2, 37° C., in 75 cm^2 vented cap flasks (Thermo-Fisher). For the invasion assay, cultured cells are plated at 1×10^4 cells/ml in 96-well culture dishes coated with Attachment Factor. The next day, cells are pretreated in culture medium containing the vehicle control, ML 141, or ML 141 structural analog. For compound delivery, ML 141 and structural analogs first are suspended into PEG at a concentration of 5 mM. The 5 mM solution is diluted to 1 mM in the solvent and then is diluted to the final concentration for each experiment in serum containing medium. For vehicle control treatment, the same volume of PEG as that of ML 141 or of ML 141 structural analog is added to the medium. The following day, the invasion assay is performed. Bacteria are added directly to medium containing vehicle control, ML 141, or the ML 141 structural analog.
Two days prior to the assay, TSB is inoculated with S. aureus (American Type Culture Collection #29213) and incubated overnight (225 rpm, 37° C.). Bacteria are subcultured the next day into fresh TSB. On the day of the assay, bacteria are pelleted (10000×g, 37° C., 3 min), are washed in saline, are pelleted as above, are resuspended in saline, then fluorescently labeled by incubation with rabbit anti-mouse IgG Alexa Fluor 488 (final concentration 8 μg/ml, RT, 20 min). Protein A, a S. aureus cell surface protein, avidly binds IgG thereby labeling the bacteria. Labeled bacteria are washed twice as above and are resuspended to 3×10^8 CFU/ml in saline. Host cells are incubated with the bacteria for 1 hour (1.2×10^8 CFU/ml for same-day recovery, 5×10^6 for recovery after 48 hours, 1.4×10^7 CFU/ml; 5% CO2, 37° C.). Following infection, extracellular bacteria are removed by extensive washes with PBS and incubation of the host cells with antimicrobials that have limited mammalian membrane permeability (lysostaphin, 20 μg/ml and gentamicin, 50 μg/ml; 45 min for same-day recovery studies, 48 hours for 2-day recovery studies; 5% CO2, 37° C.). To detect the level of infection using flow cytometry, cells that have been infected with fluorescently-labeled bacteria are washed extensively with PBS, lifted from 96-well plate by incubation with trypsin, washed extensively in FACS buffer (2% BSA/0.1% sodium azide/PBS), fixed (FACS buffer containing 0.74% formaldehyde), and are counted using an Accuri flow cytometer (BD, Franklin Lakes, N.J.). They are also lifted from culture dishes using cell scrapers, pelleted, fixed (1% BSA/0.74% formaldehyde/PBS), and are counted using an Accuri flow cytometer. For enumeration of the infecting bacteria, intracellular bacteria are released from host cells using 1% saponin/PBS (20 min, 5% CO2, 37° C.) and serial dilutions are plated on TSA (16 hours, 37° C.). […]

[2] = molecular target: CDC42 (Homo sapiens, UniProt P60953); assay: BODIPY-FL-GTP binding to CDC42
[3] = test system: Human umbilical vein endothelial cells; assay: Cytotoxicity by propidium iodide exclusion, HUVEC; assay type: cell-based; conditions: HUVEC pretreated 18-20 h
[4] = test system: Staphylococcus aureus; assay: Assessment of bactericidal activity (HUVEC media); assay type: cell-based; conditions: 1.2 × 10^8 CFU S. aureus, 1 h in HUVEC media; 10 μM
Experimental: FIG. 6B illustrates that neither cytotoxicity nor bactericidal activity is detected. Cultures of Staphylococcus aureus that had been incubated with the vehicle control DMSO or with ML 141 (1 hour, 37° C., 225 rpm) were serially diluted, plated onto blood agar, and incubated (18 hours, 37° C.). Colonies were enumerated and colony forming units (CFU)/ml determined. CFU/ml were not different amongst the groups (p>0.05 by t-test; n=2/treatment). […]

[5] = test system: actin stress fibers; assay: Actin stress fiber depolymerization in HUVEC during S. aureus infection; assay type: cell-based, human; conditions: 18-20 h pretreatment, S. aureus 1 h
Experimental: (§1) FIG. 8A is an image depicting ML 141 limiting actin stress fiber depolymerization during infection. Human umbilical vein endothelial cells (HUVEC) were incubated with ML 141 or with the vehicle control polyethylene glycol (PEG) 18-20 h prior to infection with Staphylococcus aureus (1 h). Actin was detected using Alexa Fluor 488 phalloidin. Arrows indicate intact actin stress fibers. Arrowhead indicates cell lacking actin stress fibers. 100 cells/treatment were evaluated from randomly selected fields. Data are presented as the % of cells in which actin stress fibers were not detected. Scale bar is 50 μm.
as §1, with “8B” for “8A”, “RSM 06” for “ML 141”, “200” for “Arrows indicate intact actin stress fibers. Arrowhead indicates cell lacking actin stress fibers. 100”
as §1, with “8C” for “8A”, “RSM 16” for “ML 141”, “200” for “Arrows indicate intact actin stress fibers. Arrowhead indicates cell lacking actin stress fibers. 100”
HUVEC are plated at 1×10^5 cells/ml into 35 mm glass-bottom dishes (MatTek, Ashland, Mass.) are coated with Attachment Factor, are pretreated, and are infected (1.2×10^8 CFU) as described above. […] Alexa 488 is excited by the 488 nanommeter Ar laser line and is detected using a 505-530 nanometer bandpass filter. […] Maximum pixel projections from the Z-stacks are generated and are analyzed for actin morphology.

Sequence of CDC42 (P60953 whole entry): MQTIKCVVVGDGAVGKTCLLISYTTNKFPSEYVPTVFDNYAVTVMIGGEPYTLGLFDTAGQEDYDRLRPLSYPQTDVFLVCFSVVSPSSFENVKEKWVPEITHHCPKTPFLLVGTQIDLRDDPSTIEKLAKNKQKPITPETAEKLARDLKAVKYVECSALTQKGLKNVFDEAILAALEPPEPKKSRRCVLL

| Structure (SMILES) | inhibition of invasion compared with ML 141 (Table 1) [1] | activity at 10 µM [1] | IC50 [2] | Mean fluorescence intensity (×10^4 ± SEM), Compound (10 μM) [3] | CFU (×10^8 ± SEM), Compound (10 μM) [4] | depolymerization of actin stress fibers during infection [5] |
| --- | --- | --- | --- | --- | --- | --- |
| COc1ccc(C2=NN(c3ccc(S(N)(=O)=O)cc3)C(c3ccc4c(c3)OCO4)C2)cc1 (stereo not drawn) [RSM 06] | inhibited invasion more than ML 141 | 23 ± 1% | 10.1 µM | 2.8 ± 0.1 ×10^4 | 4.9 ± 1.6 ×10^8 CFU | limited actin depolymerization |
| COc1ccc(C2=NN(c3ccc(S(N)(=O)=O)cc3)C(c3ccc(OC)c(OC)c3)C2)cc1 (stereo not drawn) [RSM 16] | inhibited invasion more than ML 141 | 63 ± 4% | 3.7 µM | 1.4 ± 0.2 ×10^4 | 8.9 ± 1.9 ×10^8 CFU | limited actin depolymerization |
